Measured values: the CheMixHub drug solubility set

Assay: xn = mol fraction of the nth substance listed, in the solute-free solvent

COC(=O)C1=C(C)NC(C)=C(C(=O)OCC(C)C)C1c1ccccc1[N+](=O)[O-] (stereo not drawn) + CCCO + O
solubility (g/100 g solution)
Conditions	278.15 K	283.15 K	288.15 K	293.15 K	298.15 K	303.15 K	308.15 K	313.15 K	318.15 K
x2 = 0.03225	0.131	0.174	0.219	0.268	0.346	0.422	0.526	0.638	0.78
x2 = 0.06974	0.532	0.647	0.806	0.96	1.16	1.37	1.62	1.92	2.23
x2 = 0.1139	0.997	1.25	1.49	1.81	2.21	2.6	3.12	3.63	4.27
x2 = 0.1666	1.41	1.75	2.12	2.56	3.1	3.6	4.37	5.07	5.97
x2 = 0.2307	1.69	2.05	2.52	3.08	3.7	4.42	5.22	6.16	7.24
x2 = 0.3103	2.02	2.49	2.99	3.59	4.3	5.12	6.03	7.01	8.15
x2 = 0.4117	2.29	2.82	3.37	4.11	4.82	5.73	6.73	7.81	9.08
x2 = 0.5454	2.47	3.06	3.68	4.45	5.28	6.23	7.23	8.39	9.79
x2 = 0.7297	2.47	3.01	3.69	4.38	5.22	6.28	7.42	8.7	10

Cc1nc(CCl)nc2ccccc12 + CCOC(C)=O + C1CCCCC1
solubility (g/100 g solution)
Conditions	x2 = 0.163	x2 = 0.321	x2 = 0.475	x2 = 0.624	x2 = 0.768	x2 = 0.909
281.15 K	0.0748	0.106	0.134	0.162	0.187	0.212
286.15 K	0.102	0.139	0.176	0.21	0.244	0.276
291.15 K	0.134	0.18	0.225	0.27	0.312	0.352
296.15 K	0.172	0.229	0.285	0.339	0.392	0.439
301.15 K	0.22	0.29	0.357	0.42	0.481	0.539
306.15 K	0.276	0.357	0.437	0.511	0.582	0.65
311.15 K	0.342	0.435	0.526	0.61	0.692	0.772
316.15 K	0.418	0.523	0.623	0.718	0.81	0.898
321.15 K	0.504	0.619	0.727	0.833	0.934	1.03
326.15 K	0.599	0.721	0.84	0.951	1.06	1.16
331.15 K	0.704	0.833	0.955	1.07	1.19	1.3

CC(=O)Nc1ccc(OC(=O)c2ccccc2OC(C)=O)cc1 + CC(C)O + O
solubility (g/100 g solution)
Conditions	278.15 K	283.15 K	288.15 K	293.15 K	298.15 K	303.15 K	308.15 K	313.15 K	318.15 K
x2 = 0.03225	0.00278	0.00407	0.0057	0.00819	0.0115	0.0161	0.0217	0.0296	0.0399
x2 = 0.06974	0.0072	0.0102	0.0142	0.0195	0.0268	0.0367	0.0481	0.0636	0.0846
x2 = 0.1139	0.015	0.0212	0.0289	0.0402	0.0537	0.0718	0.0958	0.126	0.162
x2 = 0.1666	0.0246	0.0342	0.0466	0.0633	0.0855	0.114	0.148	0.195	0.252
x2 = 0.2307	0.0358	0.0489	0.0678	0.0921	0.124	0.165	0.217	0.285	0.371
x2 = 0.3103	0.0475	0.0662	0.0897	0.123	0.163	0.215	0.29	0.374	0.488
x2 = 0.4117	0.0571	0.0787	0.109	0.148	0.197	0.26	0.341	0.445	0.574
x2 = 0.5454	0.0663	0.0911	0.125	0.167	0.221	0.295	0.381	0.494	0.642
x2 = 0.7297	0.0717	0.097	0.131	0.177	0.239	0.315	0.412	0.525	0.68

Cc1ccc(Nc2nccc(N(C)c3ccc4c(C)n(C)nc4c3)n2)cc1S(N)(=O)=O + CC#N + CCCO
solubility (g/100 g solution)
Conditions	288.15 K	293.15 K	298.15 K	303.15 K	308.15 K	313.15 K	318.15 K	323.15 K	328.15 K
x2 = 0.2679	0.0118	0.0186	0.0265	0.0356	0.0456	0.0555	0.066	0.0779	0.0924
x2 = 0.4939	0.0196	0.031	0.0432	0.057	0.0716	0.0875	0.104	0.123	0.145
x2 = 0.6871	0.0177	0.0276	0.0399	0.0523	0.0687	0.0849	0.102	0.12	0.143
x2 = 0.8541	0.0117	0.0175	0.0245	0.0326	0.0408	0.0514	0.0625	0.075	0.0903

O=C(CC(=O)c1ccccc1)c1ccccc1 + CO + O
solubility (g/100 g solution)
Conditions	278.15 K	283.15 K	288.15 K	293.15 K	298.15 K	303.15 K	308.15 K	313.15 K	318.15 K
x2 = 0.2	0.0215	0.0248	0.0305	0.0358	0.0488	0.0621	0.0667	0.0775	0.0881
x2 = 0.4	0.0257	0.0323	0.039	0.0541	0.0826	0.13	0.162	0.236	0.322
x2 = 0.6	0.165	0.351	0.562	0.643	0.783	0.822	0.987	1.02	1.05
x2 = 0.8	0.491	0.788	1.01	1.11	1.35	1.7	1.98	2.52	2.72

O=C(CC(=O)c1ccccc1)c1ccccc1 + CCO + O
solubility (g/100 g solution)
Conditions	278.15 K	283.15 K	288.15 K	293.15 K	298.15 K	303.15 K	308.15 K	313.15 K	318.15 K
x2 = 0.2	0.0116	0.0406	0.0595	0.069	0.0786	0.0881	0.0946	0.177	0.129
x2 = 0.4	0.2	0.505	0.754	0.88	1.09	1.28	1.97	2.5	2.96
x2 = 0.6	0.577	0.706	0.904	1.13	1.47	2	2.12	2.61	3.89
x2 = 0.8	1.25	2.11	1.75	2.39	3.08	3.46	4.26	6.03	8.9

CC(=O)Nc1ccc(OC(=O)c2ccccc2OC(C)=O)cc1 + CN(C)C=O + O
solubility (g/100 g solution)
Conditions	278.15 K	283.15 K	288.15 K	293.15 K	298.15 K	303.15 K	308.15 K	313.15 K	318.15 K
x2 = 0.02666	0.00846	0.0119	0.016	0.0222	0.0297	0.0399	0.0526	0.0698	0.0891
x2 = 0.05806	0.0473	0.0628	0.084	0.109	0.141	0.18	0.232	0.291	0.365
x2 = 0.09556	0.235	0.295	0.376	0.471	0.571	0.703	0.866	1.05	1.27
x2 = 0.1412	0.633	0.777	0.947	1.16	1.39	1.68	1.97	2.35	2.77
x2 = 0.1978	1.3	1.55	1.82	2.17	2.52	2.94	3.41	3.9	4.5
x2 = 0.27	2.25	2.63	3.06	3.49	4.01	4.6	5.22	5.91	6.7
x2 = 0.3652	3.47	3.96	4.51	5.08	5.72	6.42	7.14	7.91	8.74
x2 = 0.4965	4.8	5.32	5.97	6.58	7.24	7.99	8.71	9.48	10.3
x2 = 0.6893	6.08	6.62	7.2	7.86	8.46	9.14	9.88	10.5	11.3

COC(=O)C1=C(C)NC(C)=C(C(=O)OCC(C)C)C1c1ccccc1[N+](=O)[O-] (stereo not drawn) + CC(C)O + O
solubility (g/100 g solution)
Conditions	278.15 K	283.15 K	288.15 K	293.15 K	298.15 K	303.15 K	308.15 K	313.15 K	318.15 K
x2 = 0.06974	0.651	0.819	1.02	1.25	1.49	1.76	2.04	2.35	2.71
x2 = 0.1666	1.78	2.22	2.67	3.18	3.8	4.49	5.28	6.22	7.31
x2 = 0.3103	2.4	2.84	3.46	4	4.73	5.54	6.37	7.36	8.44
x2 = 0.5454	3.18	3.82	4.5	5.27	6.2	7.21	8.34	9.68	11.1

Clc1ncnc2[nH]ccc12 + C1CCOC1 + CCOC(C)=O
solubility (g/100 g solution)
Conditions	278.15 K	283.15 K	288.15 K	293.15 K	298.15 K	303.15 K	308.15 K	313.15 K	318.15 K	323.15 K
x2 = 0.1937	2.62	2.95	3.32	3.75	4.21	4.72	5.25	5.79	6.4	7.07
x2 = 0.3753	3.46	3.9	4.38	4.87	5.45	6.03	6.66	7.34	8.06	8.83
x2 = 0.5458	4.65	5.2	5.79	6.4	7.13	7.83	8.57	9.41	10.2	11.2
x2 = 0.6272	5.34	5.93	6.58	7.23	8	8.79	9.64	10.5	11.4	12.4
x2 = 0.7061	5.97	6.66	7.32	8.1	8.9	9.77	10.6	11.5	12.6	13.5
x2 = 0.8573	7.35	8.08	8.82	9.69	10.6	11.6	12.5	13.5	14.6	15.7
